The source made the active and inactive calls. No rule for the calls is given here.
Test system: rodent lifetime carcinogenesis bioassay, tumor incidence TD50
Assay: carcinogenic potency in animals, long-term in vivo studies, CPDB compilation (AID 1745844)

SMILES: CCCCNC(=O)NS(=O)(=O)c1ccc(C)cc1
- TD50 (mouse, strain B6C3F1, females, in feed, site: any site (literature study), lesion: several types, types named in the paper, dosed 78 weeks, study length 103 weeks): 24200 mg/kg/day (inactive)
- carcinogen call (mouse, strain B6C3F1, males, in feed, site: any site (literature study), lesion: several types, types named in the paper, dosed 78 weeks, study length 102 weeks): negative (inactive)
- carcinogen call (rat, strain Fischer 344, females, in feed, site: any site (literature study), lesion: several types, types named in the paper, dosed 78 weeks, study length 106 weeks): negative (inactive)
- carcinogen call (rat, strain Fischer 344, males, in feed, site: any site (literature study), lesion: several types, types named in the paper, dosed 78 weeks, study length 106 weeks): negative (inactive)

SMILES: CC(Cc1ccccc1)NN (configuration not stated)
- carcinogen call (mouse, strain Swiss albino, females, in drinking water, site: liver, lesion: hepatoma, dosed 119 weeks, study length 127 weeks): negative (inactive)
- carcinogen call (mouse, strain Swiss albino, females, in drinking water, site: lung, lesion: one or several types, types not named, dosed 119 weeks, study length 127 weeks): negative (inactive)
- carcinogen call (mouse, strain Swiss albino, males, in drinking water, site: liver, lesion: hepatoma, dosed 100 weeks, study length 112 weeks): negative (inactive)
- carcinogen call (mouse, strain Swiss albino, males, in drinking water, site: lung, lesion: one or several types, types not named, dosed 100 weeks, study length 112 weeks): negative (inactive)

SMILES: CC=NO
- TD50 (rat, strain Fischer 344, males, in drinking water, site: liver, lesion: hyperplastic nodule, dosed 110 weeks, study length 129 weeks): 445 mg/kg/day

SMILES: Clc1cccc(-c2ccc(Cl)c(Cl)c2Cl)c1Cl
- TD50 (mouse, strain BALB/cJ, males, in feed, site: liver, lesion: hepatoma, dosed 26 weeks, study length 47 weeks): 64.6 mg/kg/day
- TD50 (mouse, strain BALB/cJ, males, in feed, site: liver, lesion: hepatoma, dosed 47 weeks, study length 47 weeks): 9.58 mg/kg/day
- TD50 (rat, strain Fischer 344, females, in feed, site: liver, lesion: adenoma, NOS, dosed 105 weeks, study length 105 weeks): 34.8 mg/kg/day
- carcinogen call (rat, strain Fischer 344, females, in feed, site: stomach, lesion: adenocarcinoma, NOS, dosed 105 weeks, study length 105 weeks): a
- TD50 (rat, strain Fischer 344, males, in feed, site: all sites, lesion: leukemia + lymphoma, dosed 105 weeks, study length 105 weeks): 5.94 mg/kg/day
- TD50 (rat, strain Fischer 344, males, in feed, site: all sites, lesion: leukemia, dosed 105 weeks, study length 105 weeks): 6.75 mg/kg/day
- TD50 (rat, strain Fischer 344, males, in feed, site: any site (literature study), lesion: several types, types named in the paper, dosed 105 weeks, study length 105 weeks): 3.23 mg/kg/day
- TD50 (rat, strain Fischer 344, males, in feed, site: cecum + jejunum + stomach, lesion: adenocarcinoma, NOS, dosed 105 weeks, study length 105 weeks): 34.6 mg/kg/day
- TD50 (rat, strain Fischer 344, males, in feed, site: liver, lesion: adenoma, NOS + hepatocellular carcinoma, dosed 105 weeks, study length 105 weeks): 15.1 mg/kg/day
- TD50 (rat, strain Fischer 344, males, in feed, site: liver, lesion: hepatocellular adenoma + hepatocellular carcinoma + neoplastic nodule, dosed 105 weeks, study length 105 weeks): 20.8 mg/kg/day
- TD50 (rat, strain Sprague-Dawley, females, in feed, site: liver, lesion: cholangioma, dosed 104 weeks, study length 104 weeks): 15.3 mg/kg/day
- TD50 (rat, strain Sprague-Dawley, females, in feed, site: liver, lesion: hepatocellular adenoma, dosed 104 weeks, study length 104 weeks): 3.07 mg/kg/day
- TD50 (rat, strain Sprague-Dawley, females, in feed, site: liver, lesion: hepatocellular carcinoma, dosed 104 weeks, study length 104 weeks): 28.6 mg/kg/day
- TD50 (rat, strain Sprague-Dawley, females, in feed, site: liver, lesion: several types, types named in the paper, dosed 104 weeks, study length 104 weeks): 2.82 mg/kg/day
- TD50 (rat, strain Sprague-Dawley, males, in feed, site: liver, lesion: several types, types named in the paper, dosed 104 weeks, study length 104 weeks): 55.1 mg/kg/day
- TD50 (rat, strain Sprague-Dawley, males, in feed, site: thyroid gland, lesion: follicular-cell adenoma, dosed 104 weeks, study length 104 weeks): 20.2 mg/kg/day
- TD50 (rat, strain Sprague-Dawley, males, in feed, site: thyroid gland, lesion: follicular-cell carcinoma, dosed 104 weeks, study length 104 weeks): 89 mg/kg/day
- TD50 (rat, strain Sprague-Dawley, males, in feed, site: thyroid gland, lesion: several types, types named in the paper, dosed 104 weeks, study length 104 weeks): 16.1 mg/kg/day

SMILES: Cc1ccccc1S(N)(=O)=O
- TD50 (rat, strain Charles River CD (Sprague-Dawley), females, in feed, site: liver, lesion: Kupffer-cell sarcoma, dosed 142 weeks, study length 142 weeks): 8520 mg/kg/day
- TD50 (rat, strain Charles River CD (Sprague-Dawley), females, in feed, site: liver, lesion: neoplastic nodule, dosed 142 weeks, study length 142 weeks): 21700 mg/kg/day
- TD50 (rat, strain Charles River CD (Sprague-Dawley), females, in feed, site: mammary gland, lesion: adenocarcinoma, dosed 142 weeks, study length 142 weeks): 12.2 mg/kg/day
- TD50 (rat, strain Charles River CD (Sprague-Dawley), males, in feed, site: liver, lesion: angiosarcoma, dosed 142 weeks, study length 142 weeks): 17200 mg/kg/day
- TD50 (rat, strain Charles River CD (Sprague-Dawley), males, in feed, site: liver, lesion: neoplastic nodule, dosed 142 weeks, study length 142 weeks): 35900 mg/kg/day
- TD50 (rat, strain Sprague-Dawley, both sexes, in feed, site: all sites, lesion: leukemia, dosed 133 weeks, study length 142 weeks): 375 mg/kg/day
- TD50 (rat, strain Sprague-Dawley, both sexes, in feed, site: any site (literature study), lesion: malignant tumor, dosed 133 weeks, study length 142 weeks): 13300 mg/kg/day
- TD50 (rat, strain Sprague-Dawley, both sexes, in feed, site: urinary bladder, lesion: several types, types named in the paper, dosed 133 weeks, study length 142 weeks): 3960 mg/kg/day
- carcinogen call (rat, strain Wistar, females, in drinking water, site: liver, lesion: hepatocellular carcinoma, dosed 102 weeks, study length 102 weeks): negative (inactive)

SMILES: Cc1ccc(N=Nc2c(O)c(S(=O)(=O)O)cc3cc(S(=O)(=O)O)ccc23)c(C)c1
- TD50 (mouse, strain DDY, females, in feed, site: liver, lesion: hepatocellular adenoma, dosed 81 weeks, study length 81 weeks): 21500 mg/kg/day
- TD50 (mouse, strain DDY, females, in feed, site: liver, lesion: hepatocellular carcinoma, dosed 81 weeks, study length 81 weeks): 784 mg/kg/day
- TD50 (mouse, strain DDY, males, in feed, site: liver, lesion: hepatocellular adenoma, dosed 81 weeks, study length 81 weeks): 8790 mg/kg/day
- TD50 (mouse, strain DDY, males, in feed, site: liver, lesion: hepatocellular carcinoma, dosed 81 weeks, study length 81 weeks): 659 mg/kg/day
- TD50 (rat, strain CFE, females, in feed, site: liver, lesion: nodular hyperplasia, dosed 104 weeks, study length 104 weeks): 704 mg/kg/day
- TD50 (rat, strain CFE, males, in feed, site: liver, lesion: nodular hyperplasia, dosed 104 weeks, study length 104 weeks): 2910 mg/kg/day
- TD50 (rat, strain Wistar albino, females, in feed, site: liver, lesion: hepatocellular carcinoma, dosed 52 weeks, study length 91 weeks): 2620 mg/kg/day
- TD50 (rat, strain Wistar albino, females, in feed, site: liver, lesion: hepatocellular carcinoma, dosed 91 weeks, study length 91 weeks): 3270 mg/kg/day
- TD50 (rat, strain Wistar albino, females, in feed, site: liver, lesion: several types, types named in the paper, dosed 52 weeks, study length 91 weeks): 233 mg/kg/day
- carcinogen call (rat, strain Wistar albino, females, in feed, site: liver, lesion: several types, types named in the paper, dosed 91 weeks, study length 91 weeks): positive
- TD50 (rat, strain Wistar, males, in feed, site: liver, lesion: liver-cell adenoma, dosed 65 weeks, study length 65 weeks): 1130 mg/kg/day

Source: PubChem BioAssay AID1745844 (Carcinogenic Potency Database (CPDB), 2022)
